Common to all, as to assay type: binding
The target of experiment [1] is T1, fatty acid synthase I (FAS I) (Mycobacterium tuberculosis, UniProt P95029). As to the kind of experiment: STD-NMR.
The target in experiment [2] is T1, fatty acid synthase I (FAS I). Briefly: STD-NMR, competition titration with PZA.
The target is the same in experiment [3]. Briefly: biochemical.

Each structure is given as a SMILES string. pKd: −log10 of the molar value.

On to `C/C=C/C/C=C/CCC(=O)[C@H]1O[C@H]1C(N)=O` [Cerulenin], for which the “STD-NMR (positive control, 350 μM cerulenin)” value in experiment [1] is reported as “displays signals corresponding to cerulenin resonances that are indicative of cerulenin binding to Mtb FAS I”. For `NC(=O)C1=CN([C@@H]2O[C@H](COP(=O)(O)OP(=O)(O)OC[C@H]3O[C@@H](n4cnc5c(N)ncnc54)[C@H](OP(=O)(O)O)[C@@H]3O)[C@@H](O)[C@H]2O)C=CC1` [NADPH], in experiment [2], the “STD-NMR, competition titration with PZA” value is listed as “Consistent with the binding of NADPH to Mtb FAS I the intensity of the NADPH resonances increases”. As to `O=C(O)c1cnccn1` [POA, pyrazinoic acid], in experiment [2], the “STD-NMR, competition titration with PZA” value is given as “although POA binds reversibly to Mtb FAS I it does not compete with PZA since PZA is apparently not displaced”. In the case of `NC(=O)c1cnccn1` [PZA, Pyrazinamide], in experiment [3], the pKd (commonly the negative decadic logarithm of the Kd, by convention in mol/L) is 3.91 to 4.15.
